Assay results from US7538241B2, “Hsp90 family protein inhibitors” (Kyowa Hakko Kogyo Co., Ltd., priority 2003, dated 2009).

What was measured:
Type in all cases: cell-based
[1] = system: human multiple myeloma-derived KMS-11 cells; experiment: Cell growth inhibition test with KMS-11 cells (WST-1); conditions: 72 hours, read-out: 50% growth inhibition concentration (GI50)
Procedure: In a 96-well plate (Nunc), human multiple myeloma-derived KMS-11 cells were sown in an amount of 4000 cells/well, and pre-incubated in 10% FCS-containing RPMI 1640 (Nissui) (incubation medium) in a 5% carbon dioxide incubator at 37° C. for 24 hours. Next, a DMSO solution of a test compound controlled at 10 mmol/L was stepwise diluted with the incubation medium, and added to each well in a total amount of 100 μL/well, and further incubated in the 5% carbon dioxide incubator at 37° C. for 72 hours. After the incubation, WST-1-labeled mixture (Rosh Diagnostic) diluted 2-fold with the incubation medium was added thereto in an amount of 20 μL/well, and incubated in the 5% carbon dioxide incubator at 37° C. for 2 hours. Using a microplate spectrophotometer (Biorad's Model 550), the absorbance at 450 nm and 655 nm of each well was measured. The cell growth inhibition activity of the test compound was indicated by the 50% growth inhibition concentration (GI50) thereof, like in Test Example 2.

[2] = system: human mammary cancer-derived KPL-4 cells; experiment: Cell growth inhibition test with KPL-4 cells (WST-1); conditions: KPL4, 72 hours, read-out: 50% growth inhibition concentration (GI50)
Summary of the method: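 KPL-4 cells pre-incubated 24 h in 10% FCS DMEM, then exposed to serially diluted compound for 72 h at 37 °C, 5% CO2. WST-1 added for 1 h; A450 minus A655 read. GI50 relative to untreated cells.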

[3] = system: human chronic myelocytic leukemia-derived K562 cells; experiment: Cell growth inhibition test with K562 cells (WST-1); conditions: 72 hours, read-out: 50% growth inhibition concentration (GI50)
Summary of the method: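 K562 cells at 1500 cells/well in 10% FCS RPMI 1640, pre-incubated 5 h, then exposed to serially diluted compound for 72 h at 37° C, 5% CO2. Viability read by WST-1 after 2 h (absorbance 450/655 nm); GI50 reported.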

| Compound | GI50 [1] [µM] | GI50 [2] [µM] | GI50 [3] [µM] |
| --- | --- | --- | --- |
| CCc1c(O)cc(O)c(-c2ccccc2)c1CC(=O)OC [Compound 52, Methyl 2-ethyl-3,5-dihydroxy-6-phenylphenylacetate] | ≤ 50 | ≤ 50 | – |
| CCc1c(O)cc(O)c(-c2ccccc2)c1CCCOCCO [Compound 162, 6-Ethyl-5-[3-(2-hydroxyethoxy)propyl]-4-phenylbenzene-1,3-diol] | – | ≤ 50 | ≤ 50 |
| CCc1c(O)cc(O)c(-c2ccccc2)c1CCCOC(CO)CO [Compound 163, 5-{3-[Bis(hydroxymethyl)methoxy]propyl}-6-ethyl-4-phenylbenzene-1,3-diol] | – | ≤ 50 | ≤ 50 |
| COCCOCCc1c(C(C)=O)c(O)cc(O)c1-c1cccc(O)c1 [Compound 165, 1-{2,4-Dihydroxy-5-(3-hydroxyphenyl)-6-[2-(2-methoxyethoxy)ethyl]phenyl}ethanone] | – | ≤ 50 | ≤ 50 |
| CCc1c(O)cc(O)c(-c2cccc(O)c2)c1CCOCCOC [Compound 166, 6-Ethyl-4-(3-hydroxyphenyl)-5-[2-(2-methoxyethoxy)ethyl]benzene-1,3-diol] | ≤ 50 | ≤ 50 | ≤ 50 |
| CCc1c(O)cc(O)c(-c2ccccc2)c1CCCOCC(=O)NCCO [Compound 167, 2-[3-(2-Ethyl-3,5-dihydroxy-6-phenylphenyl)propoxy]-N-(2-hydroxyethyl)acetamide] | – | ≤ 50 | ≤ 50 |
| CCc1c(O)cc(O)c(-c2cccc(O)c2)c1CCOC [Compound 171, 6-Ethyl-4-(3-hydroxyphenyl)-5-(2-methoxyethyl)benzene-1,3-diol] | – | ≤ 50 | ≤ 50 |
| CCc1c(O)cc(O)c(-c2cccc(O)c2)c1CCO [Compound 172, 6-Ethyl-5-(2-hydroxyethyl)-4-(3-hydroxyphenyl)benzene-1,3-diol] | – | ≤ 50 | ≤ 50 |
| CCc1c(O)cc(O)c(-c2cccc(O)c2)c1CCOCC(O)CO (stereo not shown) [Compound 173, 5-[2-(2,3-dihydroxypropoxy)ethyl]-6-ethyl-4-(3-hydroxyphenyl)benzene-1,3-diol] | – | ≤ 50 | ≤ 50 |
| CCc1c(O)cc(O)c(-c2ccccc2)c1CCOCCCO [Compound 175, 6-Ethyl-5-[2-(3-hydroxypropoxy)ethyl]-4-phenylbenzene-1,3-diol] | – | ≤ 50 | ≤ 50 |
| CCc1c(O)cc(O)c(-c2cccc(OC)c2)c1CCOCC(O)CO (stereo not shown) [Compound 189, 5-[2-(2,3-Dihydroxypropoxy)ethyl]-6-ethyl-4-(3-methoxyphenyl)benzene-1,3-diol] | – | ≤ 50 | ≤ 50 |
| CCc1c(O)cc(O)c(-c2ccccc2)c1CCc1ocnc1CO [Compound 210, 6-Ethyl-5-[2-(4-hydroxymethyl-1,3-oxazol-5-yl)ethyl]-4-phenylbenzene-1,3-diol] | ≤ 50 | – | ≤ 50 |
| CCc1c(O)cc(O)c(-c2cccc(C)c2)c1CC1O[C@@H](CO)[C@H](CO)O1 [Compound 229, 5-{[(4S,5S)-4,5-bis(hydroxymethyl)-1,3-dioxolan-2-yl]methyl}-6-ethyl-4-(3-methylphenyl)benzene-1,3-diol] | ≤ 50 | – | ≤ 50 |
| CCc1c(O)cc(O)c(-c2ccco2)c1CCOCCO [Compound 256, 6-Ethyl-4-(furan-2-yl)-5-[2-(2-hydroxyethoxy)ethyl]benzene-1,3-diol] | ≤ 50 | – | ≤ 50 |
| COC(=O)Cc1cc(O)cc(O)c1-c1ccc2ccccc2c1 [Compound 270, Methyl-3,5-dihydroxy-2-(2-naphthyl)phenylacetate] | – | ≤ 50 | ≤ 50 |
| CCc1c(O)cc(O)c(-c2cccs2)c1CCOCCO [Compound 275, 6-Ethyl-5-[2-(2-hydroxyethoxy)ethyl]-4-(2-thienyl)benzene-1,3-diol] | ≤ 50 | – | ≤ 50 |
| CCc1cc(-c2n[nH]c3cc(OC)ccc23)c(O)cc1O [Compound 276, 6-Ethyl-4-(6-methoxy-1H-indazol-3-yl)benzene-1,3-diol] | ≤ 50 | ≤ 50 | – |
| CCc1c(O)cc(O)c(-c2ccc(F)c(C)c2)c1CC1O[C@@H](CO)[C@H](CO)O1 [Compound 300, 5-{[(4S,5S)-4,5-Bis(hydroxymethyl)-1,3-dioxolan-2-yl]methyl}-6-ethyl-4-(4-fluoro-3-methylphenyl)benzene-1,3-diol] | ≤ 50 | – | ≤ 50 |
| CCc1c(O)cc(O)c(-c2ccccc2)c1Cc1nn(CCOC)c(=O)o1 [Compound 317, 5-[(2-Ethyl-3,5-dihydroxy-6-phenylphenyl)methyl]-3-(2-methoxyethyl)-3H-1,3,4-oxadiazol-2-one] | ≤ 50 | – | ≤ 50 |

Other lines, results leading:

| GI50 [1] [µM] | GI50 [2] [µM] | GI50 [3] [µM] | Compound |
| --- | --- | --- | --- |
| ≤ 50 | ≤ 50 | ≤ 50 | CCc1c(O)cc(O)c(-c2ccccc2)c1CCO [Compound 84, 6-Ethyl-5-(2-hydroxyethyl)-4-phenylbenzene-1,3-diol] |
| ≤ 50 | ≤ 50 | ≤ 50 | COCCc1c(C(C)=O)c(O)cc(O)c1-c1ccccc1 [Compound 92, 1-[2,4-Dihydroxy-6-(2-methoxyethyl)-5-phenylphenyl]ethanone] |
| ≤ 50 | ≤ 50 | ≤ 50 | COCCc1c(C(C)=O)c(O)cc(O)c1-c1cccc(OC)c1 [Compound 116, 1-[2,4-Dihydroxy-6-(2-methoxyethyl)-5-(3-methoxyphenyl)phenyl]ethanone] |
| ≤ 50 | ≤ 50 | ≤ 50 | CCc1c(O)cc(O)c(-c2cccc(OC)c2)c1CCOC [Compound 118, 6-Ethyl-5-(2-methoxyethyl)-4-(3-methoxyphenyl)benzene-1,3-diol] |
| ≤ 50 | ≤ 50 | ≤ 50 | COCCc1c(C(C)=O)c(O)cc(O)c1-c1cccc(C)c1 [Compound 122, 1-[2,4-Dihydroxy-6-(2-methoxyethyl)-5-(3-methylphenyl)phenyl]ethanone] |
| ≤ 50 | ≤ 50 | ≤ 50 | COCCc1c(C(C)=O)c(O)cc(O)c1-c1cccc(O)c1 [Compound 134, 1-[2,4-Dihydroxy-5-(3-hydroxyphenyl)-6-(2-methoxyethyl)phenyl]ethanone] |
| – | ≤ 50 | ≤ 50 | COCCOCCc1c(C(C)=O)c(O)cc(O)c1-c1cccc(OC)c1 [Compound 137, 1-{2,4-dihydroxy-6-[2-(2-methoxyethoxy)ethyl]-5-(3-methoxyphenyl)phenyl}ethanone] |
| ≤ 50 | ≤ 50 | ≤ 50 | CCc1c(O)cc(O)c(-c2cccc(OC)c2)c1CCOCCOC [Compound 138, 6-Ethyl-5-[2-(2-methoxyethoxy)ethyl]-4-(3-methoxyphenyl)benzene-1,3-diol] |
| ≤ 50 | ≤ 50 | ≤ 50 | COCCOCCc1c(C(C)=O)c(O)cc(O)c1-c1cccc(C)c1 [Compound 139, 1-{2,4-dihydroxy-6-[2-(2-methoxyethoxy)ethyl]-5-(3-methylphenyl)phenyl}ethanone] |
| – | ≤ 50 | ≤ 50 | CCc1c(O)cc(O)c(-c2cccc(OC)c2)c1CCO [Compound 143, 6-Ethyl-5-(2-hydroxyethyl)-4-(3-methoxyphenyl)benzene-1,3-diol] |
| – | ≤ 50 | ≤ 50 | C=CCOCCCc1c(CC)c(O)cc(O)c1-c1ccccc1 [Compound 145, 5-(3-Allyloxypropyl)-6-ethyl-4-phenylbenzene-1,3-diol] |
| – | ≤ 50 | ≤ 50 | CCc1c(O)cc(O)c(-c2ccccc2)c1CCCOCCOC [Compound 146, 6-Ethyl-5-[3-(2-methoxyethoxy)propyl]-4-phenylbenzene-1,3-diol] |
| ≤ 50 | ≤ 50 | ≤ 50 | CCc1c(O)cc(O)c(-c2ccccc2)c1CCOCC(O)CO (stereo not shown) [Compound 147, 5-[2-(2,3-Dihydroxypropoxy)ethyl]-6-ethyl-4-phenylbenzene-1,3-diol] |
| – | ≤ 50 | ≤ 50 | CCc1c(O)cc(O)c(-c2ccccc2)c1CCCOCC(O)CO (stereo not shown) [Compound 148, 5-[3-(2,3-Dihydroxypropoxy)propyl]-6-ethyl-4-phenylbenzene-1,3-diol] |
| – | ≤ 50 | ≤ 50 | CCc1c(O)cc(O)c(-c2cccc(C)c2)c1CCOCCOC [Compound 149, 6-Ethyl-5-[2-(2-methoxyethoxy)ethyl]-4-(3-methylphenyl)benzene-1,3-diol] |
| – | ≤ 50 | ≤ 50 | CCc1c(O)cc(O)c(-c2ccccc2)c1CCOCC(=O)NC [Compound 156, 2-[2-(2-Ethyl-3,5-dihydroxy-6-phenylphenyl)ethoxy]-N-methylacetamide] |
| ≤ 50 | ≤ 50 | ≤ 50 | CCc1c(O)cc(O)c(-c2ccccc2)c1CCCOCC(=O)NC [Compound 159, 2-[3-(2-Ethyl-3,5-dihydroxy-6-phenylphenyl)propoxy]-N-methylacetamide] |
| – | ≤ 50 | ≤ 50 | CCc1c(O)cc(O)c(-c2ccccc2)c1CCOCCO [Compound 161, 6-Ethyl-5-[2-(2-hydroxyethoxy)ethyl]-4-phenylbenzene-1,3-diol] |
